Source: BindingDB's records for doi:10.1016/j.bioorg.2017.03.013 (Birla Institute of Technology, 2017)

Target: Gag-Pol polyprotein (Human immunodeficiency virus type 1 group M subtype B (isolate HXB2), UniProt P04585)
Test: HIV-1 RT In-Vitro Assay
Procedure: The reaction mixture was set with template primer complex, RT enzyme and dNTPs in a lysis buffer with or without inhibitors. The reaction mixture was incubated at 37 °C for 1 h and then transferred to streptavidine-coated microtitre plate (MTP). The biotin-labeled dNTPs that were incorporated in the template due to activity of RT, bound to streptavidine. The unbound dNTPs were washed using wash buffer and anti-DIG-POD was added to the MTP. The DIG-labeled dNTPs incorporated in the template were bound to an anti-DIG-POD antibody. The unbound anti-DIG-POD was washed again with washing buffer and the peroxide substrate (ABST) was added to the MTP. A colored reaction product was produced during the cleavage of the substrate catalyzed by a peroxide enzyme. The absorbance of the sample was determined as an optical density (OD) at 405 nm using a micro titer plate ELISA reader.

IC50 [µM] | Compound
92.5 | CC1CC(=O)Nc2ccccc2N1C(=O)c1ccccc1Br (centres undefined) [5-(2-bromobenzoyl)-4-methyl-1,3,4,5-tetrahydro-2H-1,5-benzodiazepin-2-one (A13)]
8.62 | CC1CC(=O)Nc2ccccc2N1C(=O)c1ccccc1Cl (centres undefined) [5-(2-chlorobenzoyl)-4-methyl-1,3,4,5-tetrahydro-2H-1,5-benzodiazepin-2-one (A10)]
> 100 | CC1CC(=O)Nc2ccccc2N1C(=O)c1ccccc1F (centres undefined) [5-(2-fluorobenzoyl)-4-methyl-1,3,4,5-tetrahydro-2H-1,5-benzodiazepin-2-one (A7)]
14.3 | Cc1ccccc1C(=O)N1c2ccccc2NC(=O)CC1C (centres undefined) [5-(2-methylbenzoyl)-4-methyl-1,3,4,5-tetrahydro-2H-1,5-benzodiazepin-2-one (A2)]
6.87 | CC1CC(=O)Nc2ccccc2N1C(=O)c1cccc(Cl)c1 (centres undefined) [5-(3-chlorobenzoyl)-4-methyl-1,3,4,5-tetrahydro-2H-1,5-benzodiazepin-2-one (A11)]
76.3 | CC1CC(=O)Nc2ccccc2N1C(=O)c1cccc(F)c1 (centres undefined) [5-(3-fluorobenzoyl)-4-methyl-1,3,4,5-tetrahydro-2H-1,5-benzodiazepin-2-one (A8)]
87.9 | COc1cccc(C(=O)N2c3ccccc3NC(=O)CC2C)c1 (centres undefined) [5-(3-methoxybenzoyl)-4-methyl-1,3,4,5-tetrahydro-2H-1,5-benzodiazepin-2-one (A5)]
26.4 | Cc1cccc(C(=O)N2c3ccccc3NC(=O)CC2C)c1 (centres undefined) [5-(3-methylbenzoyl)-4-methyl-1,3,4,5-tetrahydro-2H-1,5-benzodiazepin-2-one (A3)]
68.7 | CC1CC(=O)Nc2ccccc2N1C(=O)c1ccc(Br)cc1 (centres undefined) [5-(4-bromobenzoyl)-4-methyl-1,3,4,5-tetrahydro-2H-1,5-benzodiazepin-2-one (A14)]
38.3 | CC1CC(=O)Nc2ccccc2N1C(=O)c1ccc(Cl)cc1 (centres undefined) [5-(4-chlorobenzoyl)-4-methyl-1,3,4,5-tetrahydro-2H-1,5-benzodiazepin-2-one (A12)]
25 | CC1CC(=O)Nc2ccccc2N1C(=O)c1ccc(F)cc1 (centres undefined) [5-(4-fluorobenzoyl)-4-methyl-1,3,4,5-tetrahydro-2H-1,5-benzodiazepin-2-one (A9)]
54.6 | COc1ccc(C(=O)N2c3ccccc3NC(=O)CC2C)cc1 (centres undefined) [5-(4-methoxybenzoyl)-4-methyl-1,3,4,5-tetrahydro-2H-1,5-benzodiazepin-2-one (A6)]
> 100 | Cc1ccc(C(=O)N2c3ccccc3NC(=O)CC2C)cc1 (centres undefined) [5-(4-methylbenzoyl)-4-methyl-1,3,4,5-tetrahydro-2H-1,5-benzodiazepin-2-one (A4)]
17.5 | CC1CC(=O)Nc2ccccc2N1C(=O)c1ccccc1 (centres undefined) [5-(benzoyl)-4-methyl-1,3,4,5-tetrahydro-2H-1,5-benzodiazepin-2-one (A1)]
